The results in this text go back to patent publication US7192924B2, “Corticotropin releasing factor 2 receptor agonists” (priority 2002, dated 2007).

pEC50: −log10 of the molar value. Peptide text beside a SMILES is read from it.

The target in one assay is T1, CRF2R (Homo sapiens, UniProt Q13324).
T1 sequence (Q13324 1-411): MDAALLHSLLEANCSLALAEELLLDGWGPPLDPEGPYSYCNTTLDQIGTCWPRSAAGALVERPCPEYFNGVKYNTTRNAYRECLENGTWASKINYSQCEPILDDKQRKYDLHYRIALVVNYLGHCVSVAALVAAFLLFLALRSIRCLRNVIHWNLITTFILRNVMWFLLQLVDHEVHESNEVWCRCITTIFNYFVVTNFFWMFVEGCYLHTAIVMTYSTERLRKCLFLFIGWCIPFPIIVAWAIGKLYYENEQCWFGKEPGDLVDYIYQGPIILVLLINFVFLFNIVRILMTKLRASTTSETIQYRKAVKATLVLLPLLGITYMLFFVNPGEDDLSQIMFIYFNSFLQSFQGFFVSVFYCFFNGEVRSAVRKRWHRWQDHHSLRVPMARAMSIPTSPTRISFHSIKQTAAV
As to the kind of experiment: CRF2R agonist activity (EC50, Emax), called comparative CRF binding. The class given is cell-based. The following applies: read-out: CRF2R EC50. The method in brief:
(§1)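 cAMP read-out: CRE-linked reporter (e.g. luciferase, CAT, GFP) or lysate cAMP in CRF1R- or CRF2R-expressing cells after peptide exposure; vehicle control comparison. Signal from any non-target CRFR subtracted.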

A further assay has as its target T2, CRF1R (Homo sapiens, UniProt P34998).
T2 sequence (P34998 24-415): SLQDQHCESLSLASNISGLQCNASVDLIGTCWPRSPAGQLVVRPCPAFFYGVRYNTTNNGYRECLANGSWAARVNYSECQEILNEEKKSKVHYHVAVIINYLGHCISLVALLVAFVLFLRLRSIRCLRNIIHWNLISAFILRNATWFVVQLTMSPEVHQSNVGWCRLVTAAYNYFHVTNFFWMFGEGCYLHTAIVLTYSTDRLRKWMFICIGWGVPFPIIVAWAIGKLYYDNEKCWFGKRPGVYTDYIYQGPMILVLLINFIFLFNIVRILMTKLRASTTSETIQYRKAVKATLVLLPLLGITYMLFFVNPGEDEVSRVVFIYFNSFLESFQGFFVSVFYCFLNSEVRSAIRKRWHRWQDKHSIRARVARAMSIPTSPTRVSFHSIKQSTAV
Briefly: CRF1R agonist activity (EC50, Emax), called comparative CRF binding. The class given is cell-based. The following applies: read-out: CRF1R EC50. The method in brief: as §1

One may read the pEC50 as the EC50 on a negative log10 scale, so that one unit is a factor of ten. As to `CC[C@H](C)[C@H](NC(=O)[C@H](CCCNC(=N)N)NC(=O)[C@H](C)NC(=O)[C@H](CC(N)=O)NC(=O)[C@H](CCC(N)=O)NC(=O)[C@H](CCC(=O)O)NC(=O)[C@H](C)NC(=O)[C@H](CCCNC(=N)N)NC(=O)[C@H](CCC(=O)O)NC(=O)[C@H](CCCNC(=N)N)NC(=O)[C@H](CCC(N)=O)NC(=O)[C@H](CO)NC(=O)[C@H](CCC(N)=O)NC(=O)[C@@H](NC(=O)[C@H](CCCCN)NC(=O)[C@H](CCC(=O)O)NC(=O)[C@H](CC(C)C)NC(=O)[C@H](CCC(=O)O)NC(=O)[C@H](CC(C)C)NC(=O)[C@H](CC(C)C)NC(=O)[C@@H](NC(=O)[C@H](CCCNC(=N)N)NC(=O)[C@H](CC(C)C)NC(=O)[C@H](CC(C)C)NC(=O)[C@H](Cc1ccccc1)NC(=O)[C@H](CC(C)C)NC(=O)[C@@H]1CCCN1C(=O)[C@H](CC(C)C)NC(=O)[C@H](CC(=O)O)NC(=O)[C@@H](NC(=O)[C@H](CO)NC(=O)[C@H](CC(C)C)NC(=O)[C@H](CO)NC(=O)[C@@H]1CCCN1C(=O)[C@H](CC(N)=O)NC(=O)[C@@H](N)CC(=O)O)[C@@H](C)CC)[C@@H](C)O)[C@@H](C)O)C(=O)N[C@@H](Cc1ccccc1)C(=O)N[C@@H](CC(=O)O)C(=O)N[C@@H](CCCNC(=N)N)C(=O)N[C@H](C(N)=O)C(C)C` [compound 336] (H-DNPSLSIDLPLFLLRTLLELEKTQSQRERAEQNARIFDRV-NH2; N-terminus assumed), the pEC50 at CRF2R was 7.75; on CRF1R, no more than 6.00.

Consider `CC[C@H](C)[C@H](NC(=O)[C@H](CCCNC(=N)N)NC(=O)[C@H](C)NC(=O)[C@H](CC(N)=O)NC(=O)[C@H](CCC(N)=O)NC(=O)[C@H](CCC(=O)O)NC(=O)[C@H](C)NC(=O)[C@H](CCCNC(=N)N)NC(=O)[C@H](CCC(=O)O)NC(=O)[C@H](CCCNC(=N)N)NC(=O)[C@H](CCC(N)=O)NC(=O)[C@H](CO)NC(=O)[C@H](CCC(N)=O)NC(=O)[C@@H](NC(=O)[C@H](CCCCN)NC(=O)[C@H](CCC(=O)O)NC(=O)[C@H](CC(C)C)NC(=O)[C@H](CCC(=O)O)NC(=O)[C@H](CC(C)C)NC(=O)[C@H](CC(C)C)NC(=O)[C@@H](NC(=O)[C@H](CCCNC(=N)N)NC(=O)[C@H](CC(C)C)NC(=O)[C@H](CC(C)C)NC(=O)[C@H](CC(C)C)NC(=O)[C@H](CC(C)C)NC(=O)[C@@H]1CCCN1C(=O)[C@H](CC(C)C)NC(=O)[C@H](CC(=O)O)NC(=O)[C@@H](NC(=O)[C@H](CO)NC(=O)[C@H](CC(C)C)NC(=O)[C@H](CO)NC(=O)[C@@H]1CCCN1C(=O)[C@H](CC(N)=O)NC(=O)[C@@H](N)CC(=O)O)[C@@H](C)CC)[C@@H](C)O)[C@@H](C)O)C(=O)N[C@@H](Cc1ccccc1)C(=O)N[C@@H](CC(=O)O)C(=O)N[C@@H](CCCNC(=N)N)C(=O)N[C@H](C(N)=O)C(C)C` [compound 338] (H-DNPSLSIDLPLLLLRTLLELEKTQSQRERAEQNARIFDRV-NH2; N-terminus assumed), for which the pEC50 at CRF2R is 7.71; at CRF1R, no more than 6.00.

As for `CC[C@H](C)[C@H](NC(=O)[C@H](CCCNC(=N)N)NC(=O)[C@H](C)NC(=O)[C@H](CC(N)=O)NC(=O)[C@H](CCC(N)=O)NC(=O)[C@H](CCC(=O)O)NC(=O)[C@H](C)NC(=O)[C@H](CCCNC(=N)N)NC(=O)[C@H](CCC(=O)O)NC(=O)[C@H](CCCNC(=N)N)NC(=O)[C@H](CCC(N)=O)NC(=O)[C@H](CO)NC(=O)[C@H](CCC(N)=O)NC(=O)[C@@H](NC(=O)[C@H](CCCNC(=N)N)NC(=O)[C@H](C)NC(=O)[C@H](CC(C)C)NC(=O)[C@H](CCC(=O)O)NC(=O)[C@H](CC(C)C)NC(=O)[C@H](CC(C)C)NC(=O)[C@@H](NC(=O)[C@H](CCCNC(=N)N)NC(=O)[C@H](CC(C)C)NC(=O)[C@H](CC(C)C)NC(=O)[C@H](CC(C)C)NC(=O)[C@H](CC(C)C)NC(=O)[C@@H]1CCCN1C(=O)[C@H](CC(C)C)NC(=O)[C@H](CC(=O)O)NC(=O)[C@@H](NC(=O)[C@H](CO)NC(=O)[C@H](CC(C)C)NC(=O)[C@H](CO)NC(=O)[C@@H]1CCCN1C(=O)[C@H](CC(N)=O)NC(=O)[C@@H](N)CC(=O)O)[C@@H](C)CC)[C@@H](C)O)[C@@H](C)O)C(=O)N[C@@H](Cc1ccccc1)C(=O)N[C@@H](C)C(=O)N[C@@H](CCCNC(=N)N)C(=O)N[C@H](C(N)=O)C(C)C` [compound 340] (H-DNPSLSIDLPLLLLRTLLELARTQSQRERAEQNARIFARV-NH2; N-terminus assumed), the pEC50 at CRF2R is 8.10; at CRF1R, 6.13.

For the compound `CC[C@H](C)[C@H](NC(=O)[C@H](CCCNC(=N)N)NC(=O)[C@H](C)NC(=O)[C@H](CC(N)=O)NC(=O)[C@H](CCC(N)=O)NC(=O)[C@H](CCC(=O)O)NC(=O)[C@H](C)NC(=O)[C@H](CCCNC(=N)N)NC(=O)[C@H](CCC(=O)O)NC(=O)[C@H](CCCNC(=N)N)NC(=O)[C@H](CCC(N)=O)NC(=O)[C@H](CO)NC(=O)[C@H](CCC(N)=O)NC(=O)[C@@H](NC(=O)[C@H](CCCCN)NC(=O)[C@H](CCC(=O)O)NC(=O)[C@H](CC(C)C)NC(=O)[C@H](CCC(=O)O)NC(=O)[C@H](CC(C)C)NC(=O)[C@H](CC(C)C)NC(=O)[C@@H](NC(=O)[C@H](CCCNC(=N)N)NC(=O)[C@H](CC(C)C)NC(=O)[C@H](CC(C)C)NC(=O)[C@H](CC(C)C)NC(=O)[C@H](CC(C)C)NC(=O)[C@@H]1CCCN1C(=O)[C@H](CC(C)C)NC(=O)[C@H](CC(=O)O)NC(=O)[C@@H](NC(=O)[C@H](CO)NC(=O)[C@H](CC(C)C)NC(=O)[C@H](CO)NC(=O)[C@@H]1CCCN1C(=O)[C@H](CC(N)=O)NC(=O)[C@@H](N)CC(=O)O)[C@@H](C)CC)[C@@H](C)O)[C@@H](C)O)C(=O)N[C@@H](Cc1ccccc1)C(=O)N[C@@H](C)C(=O)N[C@@H](CCCNC(=N)N)C(=O)N[C@H](C(N)=O)C(C)C` [compound 341] (H-DNPSLSIDLPLLLLRTLLELEKTQSQRERAEQNARIFARV-NH2; N-terminus assumed), the pEC50 at CRF2R is 8.05; on CRF1R it was 6.07.

`CC[C@H](C)[C@H](NC(=O)[C@H](C)NC(=O)[C@H](CC(N)=O)NC(=O)[C@H](CCC(N)=O)NC(=O)[C@H](CCC(=O)O)NC(=O)[C@H](C)NC(=O)[C@H](CCCNC(=N)N)NC(=O)[C@H](CCC(=O)O)NC(=O)[C@H](CCCNC(=N)N)NC(=O)[C@H](CCC(N)=O)NC(=O)[C@H](CO)NC(=O)[C@H](CCC(N)=O)NC(=O)[C@@H](NC(=O)[C@H](CCCCN)NC(=O)[C@H](CCC(=O)O)NC(=O)[C@H](CC(C)C)NC(=O)[C@H](CCC(=O)O)NC(=O)[C@H](CC(C)C)NC(=O)[C@H](CC(C)C)NC(=O)[C@@H](NC(=O)[C@H](CCCNC(=N)N)NC(=O)[C@H](CC(C)C)NC(=O)[C@H](CC(C)C)NC(=O)[C@H](Cc1ccccc1)NC(=O)[C@H](CC(C)C)NC(=O)[C@@H]1CCCN1C(=O)[C@H](CC(C)C)NC(=O)[C@H](CC(=O)O)NC(=O)[C@@H](NC(=O)[C@H](CO)NC(=O)[C@H](CC(C)C)NC(=O)[C@H](CO)NC(=O)[C@@H]1CCCN1C(=O)[C@H](CC(N)=O)NC(=O)[C@@H](N)CC(=O)O)[C@@H](C)CC)[C@@H](C)O)[C@@H](C)O)C(=O)N[C@H](C(=O)N[C@@H](Cc1ccccc1)C(=O)N[C@@H](C)C(=O)N[C@@H](CO)C(=O)N[C@H](C(N)=O)C(C)C)[C@@H](C)CC` [compound 343] (H-DNPSLSIDLPLFLLRTLLELEKTQSQRERAEQNAIIFASV-NH2; N-terminus assumed): the pEC50 is 7.87 on CRF2R and 6.11 at CRF1R.

For `CC[C@H](C)[C@H](NC(=O)[C@H](C)NC(=O)[C@H](CC(N)=O)NC(=O)[C@H](CCC(N)=O)NC(=O)[C@H](CCC(=O)O)NC(=O)[C@H](C)NC(=O)[C@H](CCCNC(=N)N)NC(=O)[C@H](CCC(=O)O)NC(=O)[C@H](CCCNC(=N)N)NC(=O)[C@H](CCC(N)=O)NC(=O)[C@H](CO)NC(=O)[C@H](CCC(N)=O)NC(=O)[C@@H](NC(=O)[C@H](CCCCN)NC(=O)[C@H](CCC(=O)O)NC(=O)[C@H](CC(C)C)NC(=O)[C@H](CCC(=O)O)NC(=O)[C@H](CC(C)C)NC(=O)[C@H](CC(C)C)NC(=O)[C@@H](NC(=O)[C@H](CCCNC(=N)N)NC(=O)[C@H](CC(C)C)NC(=O)[C@H](CC(C)C)NC(=O)[C@H](CC(C)C)NC(=O)[C@H](CC(C)C)NC(=O)[C@@H]1CCCN1C(=O)[C@H](CC(C)C)NC(=O)[C@H](CC(=O)O)NC(=O)[C@@H](NC(=O)[C@H](CO)NC(=O)[C@H](CC(C)C)NC(=O)[C@H](CO)NC(=O)[C@@H]1CCCN1)[C@@H](C)CC)[C@@H](C)O)[C@@H](C)O)C(=O)N[C@H](C(=O)N[C@@H](Cc1ccccc1)C(=O)N[C@@H](C)C(=O)N[C@@H](CO)C(=O)N[C@H](C(N)=O)C(C)C)[C@@H](C)CC` [compound 344] (H-PSLSIDLPLLLLRTLLELEKTQSQRERAEQNAIIFASV-NH2), the results for the pEC50 at CRF2R and on CRF1R were 8.37 and 6.19, respectively.
